# Experimental data: patent publication US20230285512A1, “COMPOSITIONS AND METHODS FOR TREATING MYOCARDIAL INFARCTION AND ISCHEMIA” (priority 2022, published 2023)
# “Also recorded” adds a separate entry of the source.
# Test system: HL-1 cardiomyocytes
# Assay: In vitro hypoxia assay of HL-1 cardiomyocytes, live/dead
# Assay type: cell-based
# Method: To examine potential functional roles of these candidates, particularly on cellular apoptosis, the study next used an in vitro hypoxia assay of HL-1 CMs, in which cells were exposed to low oxygen (1%02) for 6 hours prior to treatment with recombinant forms of these proteins.
# HL-1 cardiomyocytes (Sigma, cat. SCC065) were maintained in growth media consisting of 10% FBS in Claycomb Media (Sigma, cat. 51800C) supplemented with 10 mM norepinephrine (Sigma, cat. A0937) and […] L-glutamine (Gibco, cat. 25030081). Primary cardiac fibroblasts were isolated from Col1a1GFP/+ mice 2 months of age. Mice were injected with heparin prior to sacrifice and the heart collected. The tissue was then cut into 1-2 mm pieces and digested with Liberase Blendzyme TH and TM (Roche, cat. LIBTM-RO) in Hank's Balanced Salt Solution (HBSS) (Gibco, cat. 1417507) supplemented with DNAse I and polaxamer (10 mg/ml, Sigma, cat. 16758) in 37° C. for 1 h. […]
# Fluorescent images were acquired with Leica fluorescence inverted microscope DMI6000B equipped with an EL6000 light source. […] Image quantification was performed using Imager s “threshold” and “analyze particles” functions. Assessment of live/dead was determined as the number of DAPI+ cells/HPF. EdU and pHH3 quantification were recorded as the number of EdU+ or pHH3+ nuclei over the total number of DAPI.
substance,measurement,setting,value
"thymosin β4: Thymosin family protein Tmsb4x, recombinant form; human reference NP_066932 in Table 1",number of DAPI+ (dead) cells per field,1% O2 for 6 hours prior to treatment with recombinant protein,reduced; also recorded: protective role
same,cellular viability / toxicity,high doses (500 nM),cellular toxicity
